From patent US20230414723A1, “ENHANCED HYT-INDUCED PROTEIN DEGRADATION USING LIPID NANOPARTICLE DELIVERY” (Trustees of Tufts College, priority 2020, published 2023)

Assays:
[1] = biological target: T1, androgen receptor (AR) (Homo sapiens, UniProt P10275, T878A); assay: AR degradation in LNCaP cells by Western blot; format: cell-based; conditions: 0.125 to 0.5 μM
T1 construct: The study of targeted protein degradation by ARV-825 and SARD279 were carried out using similar protocols; host or cells: LNCaP
T1 sequence (P10275 1-920 T878A): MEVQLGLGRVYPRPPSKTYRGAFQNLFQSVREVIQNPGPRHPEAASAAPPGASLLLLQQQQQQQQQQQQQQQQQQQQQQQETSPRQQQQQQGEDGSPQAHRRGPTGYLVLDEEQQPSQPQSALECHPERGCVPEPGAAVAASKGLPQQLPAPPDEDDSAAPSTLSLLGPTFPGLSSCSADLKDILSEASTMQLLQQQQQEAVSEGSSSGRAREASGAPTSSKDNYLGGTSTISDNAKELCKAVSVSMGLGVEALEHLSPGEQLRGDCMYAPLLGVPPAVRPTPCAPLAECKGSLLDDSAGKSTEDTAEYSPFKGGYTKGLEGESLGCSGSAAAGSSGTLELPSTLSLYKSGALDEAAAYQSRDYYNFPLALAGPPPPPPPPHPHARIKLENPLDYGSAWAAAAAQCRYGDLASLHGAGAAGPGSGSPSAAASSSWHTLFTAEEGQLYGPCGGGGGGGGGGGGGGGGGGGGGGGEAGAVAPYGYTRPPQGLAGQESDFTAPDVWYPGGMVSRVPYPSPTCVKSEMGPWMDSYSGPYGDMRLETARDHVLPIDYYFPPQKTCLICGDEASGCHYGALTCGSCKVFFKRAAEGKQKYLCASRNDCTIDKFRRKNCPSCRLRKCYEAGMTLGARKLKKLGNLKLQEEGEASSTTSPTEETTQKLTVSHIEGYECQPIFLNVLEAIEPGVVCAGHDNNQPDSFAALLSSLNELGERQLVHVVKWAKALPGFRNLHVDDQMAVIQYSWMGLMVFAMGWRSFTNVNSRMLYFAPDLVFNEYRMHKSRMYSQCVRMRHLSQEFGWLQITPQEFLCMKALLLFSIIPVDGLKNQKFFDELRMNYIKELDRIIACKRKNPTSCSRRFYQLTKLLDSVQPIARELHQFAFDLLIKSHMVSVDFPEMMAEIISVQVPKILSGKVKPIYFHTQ

[2] = biological target: T2, BRD4 (Homo sapiens, UniProt O60885); assay: BRD4 degradation in HeLa cells by Western blot; format: cell-based
T2 construct: HeLa cells, which express BRD4 at high levels, were selected as a model cell line; host or cells: HeLa
Description: 80-O14B LNP was formulated by directly dissolving the lipidoid into 25 mM sodium acetate solution (pH=5.5). 80-O14B LNP was added into the solution with the final concentration of 5 μg/mL and the solution was incubated at room temperature for another 15 min before administration. Pre-fused ARV-825 or SARD279 were prepared through the similar route.
Generally, Western blots was carried out on the Invitrogen Novex SureLock Mini-Cell system. Supplies for the system were bought from Invitrogen (Carlsbad, CA, USA) […] sample was loaded onto 4-12% bis-tris protein gel and the gel was run with a stable voltage of 120 V for 80 min. Then the gel was cut according to the protein ladder and transferred to PVDF membrane with a stable current of 250 mA for 3 h. The membrane was blocked by 5% skimmed milk for 1 h at room temperature and then incubated with primary antibody overnight. After 3 cycles of washing by TBST (tris-buffered saline, 0.1% tween 20), the membrane was incubated with secondary antibody for another 1 h and then washed by TBST for 3 times. The final membrane was then imaged using enhanced chemiluminescence (ECL) substrate.
1×10^6 HeLa cells were cultured in 6 well plate for 24 h before administration. […] After 24 h incubation, the proteins were isolated from HeLa cells using the radio-immunoprecipitation assay (RIPA) lysis buffer and quantitated by bicinchoninic acid assay (BCA assay). Then the proteins were diluted to the sample concentration using NuPAGE LDS sample buffer (Invitrogen, Carlsbad, CA, USA) and denatured at 95° C. for 5 min. The study of targeted protein degradation by ARV-825 and SARD279 were carried out using similar protocols.

Row | SMILES | AR degradation [1] | BRD4 levels remained ([2]; 24 h, 25 and 50 nM) | BRD4 degradation, time-dependent ([2]; after 8 h) | BRD4 degradation, time-dependent ([2]; after 24 h) | BRD4 degradation, time-dependent ([2]; first 6 h)
1 | CC1(C)C(=O)N(c2ccc(C#N)c(C(F)(F)F)c2)C(=S)N1CCCC(=O)NCCOCCOC(=O)CC12CC3CC(CC(C3)C1)C2 [SARD279] | no AR degradation | – | – | – | –
2 | Cc1ncsc1-c1ccc([C@H](C)NC(=O)[C@@H]2C[C@@H](O)CN2C(=O)[C@@H](NC(=O)COCCCOCCNC(=O)C[C@@H]2N=C(c3ccc(Cl)cc3)c3c(sc(C)c3C)-n3c(C)nnc32)C(C)(C)C)cc1 [ARV-771] | – | more than 80% | Small amounts of degradation | total degradation | no significant degradation
